# pIC50: −log10 of the molar value. Read-outs that look alike come from different tables or passages of the source.
# Biological target: T1, Cannabinoid-1 receptor (CB1R) (Rattus norvegicus, UniProt P20272)
# T1 construct: The tissue obtained from the brain of SD rats was homogenized; from tissue; host or cells: brain of SD rats (membrane pellet of the homogenate)
# Test: Cannabinoid-1 receptor (CB1R) binding affinity assay ([3H]CP-55940, rat CB-1 receptor binding protocol)
# Settings: brain tissue of SD rats, [3H]CP-55940, 30° C. 60 min; for pIC50: read-out: IC50
# T1 sequence (P20272 whole entry): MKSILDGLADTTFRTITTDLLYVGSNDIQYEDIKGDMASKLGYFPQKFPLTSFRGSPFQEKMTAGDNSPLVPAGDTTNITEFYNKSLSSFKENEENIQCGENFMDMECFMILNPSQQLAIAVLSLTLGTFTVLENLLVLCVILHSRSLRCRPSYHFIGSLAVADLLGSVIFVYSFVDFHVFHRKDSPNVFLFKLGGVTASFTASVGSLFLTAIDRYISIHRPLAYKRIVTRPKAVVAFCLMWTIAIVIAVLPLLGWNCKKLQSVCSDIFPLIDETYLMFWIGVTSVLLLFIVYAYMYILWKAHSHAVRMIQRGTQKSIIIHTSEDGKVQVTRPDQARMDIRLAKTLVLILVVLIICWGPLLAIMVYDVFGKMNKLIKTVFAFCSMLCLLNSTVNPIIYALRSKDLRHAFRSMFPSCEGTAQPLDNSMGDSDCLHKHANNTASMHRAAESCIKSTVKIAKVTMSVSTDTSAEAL
SMILES,pIC50,IC50 (IC50(nM))
"Cc1c(-c2nnc(C3(C)CC3)s2)nn(-c2ccc(Cl)cc2Cl)c1-c1ccc(Cl)cc1 [Example 469, 2-(5-(4-chlorophenyl)-1-(2,4-dichlorophenyl)-4-methyl-1H-pyrazol-3-yl)-5-(1-methylcyclopropyl)-1,3,4-thiadiazole]",7.44,–
"CCc1c(-c2nnc(C3(C)CC3)s2)nn(-c2ccc(Cl)cc2Cl)c1-c1ccc(Br)cc1 [Example 470, 2-(5-(4-bromophenyl)-1-(2,4-dichlorophenyl)-4-ethyl-1H-pyrazol-3-yl)-5-(1-methylcyclopropyl)-1,3,4-thiadiazole]",7.93,–
"Cc1c(-c2nnc(C3(Cc4ccc(Cl)cc4)CC3)s2)nn(-c2ccc(Cl)cc2Cl)c1-c1ccc(Cl)cc1 [Example 471, 2-(1-(4-chlorobenzyl)cyclopropyl)-5-(5-(4-chlorophenyl)-1-(2,4-dichlorophenyl)-4-methyl-1H-pyrazol-3-yl)-1,3,4-thiadiazole]",7.57,–
"CCc1c(-c2nnc(C3(c4ccc(C)cc4)CC3)s2)nn(-c2ccc(Cl)cc2Cl)c1-c1ccc(Br)cc1 [Example 474, 2-(5-(4-bromophenyl)-1-(2,4-dichlorophenyl)-4-ethyl-1H-pyrazol-3-yl)-5-(1-p-tolylcyclopropyl)-1,3,4-thiadiazole]",7.73,–
"CCc1c(-c2nnc(C3(c4ccc(Cl)cc4)CCC3)s2)nn(-c2ccc(Cl)cc2Cl)c1-c1ccc(Cl)cc1 [Example 483, 2-(5-(4-chlorophenyl)-1-(2,4-dichlorophenyl)-4-ethyl-1H-pyrazol-3-yl)-5-(1-(4-chlorophenyl)cyclobutyl)-1,3,4-thiadiazole]",–,2.32 nM
"CCc1c(-c2nnc(C3(C)CC3)s2)nn(-c2ccc(Cl)cc2Cl)c1-c1ccc(Cl)cc1 [Example 484, 2-(5-(4-chlorophenyl)-1-(2,4-dichlorophenyl)-4-ethyl-1H-pyrazol-3-yl)-5-(1-methylcyclopropyl)-1,3,4-thiadiazole]",7.50,–
"CCc1c(-c2nnc(C3(c4ccccc4)CCCC3)s2)nn(-c2ccc(Cl)cc2Cl)c1-c1ccc(Br)cc1 [Example 485, 2-(5-(4-bromophenyl)-1-(2,4-dichlorophenyl)-4-ethyl-1H-pyrazol-3-yl)-5-(1-phenylcyclopentyl)-1,3,4-thiadiazole]",7.48,–
"CCc1c(-c2nnc(C3(c4ccc(Cl)cc4)CCCC3)s2)nn(-c2ccc(Cl)cc2Cl)c1-c1ccc(Br)cc1 [Example 486, 2-(5-(4-bromophenyl)-1-(2,4-dichlorophenyl)-4-ethyl-1H-pyrazol-3-yl)-5-(1-(4-chlorophenyl)cyclopentyl)-1,3,4-thiadiazole]",7.64,–
"Cc1c(-c2nnc(C3(c4ccccc4)CC3)s2)nn(-c2ccc(Cl)cc2Cl)c1-c1ccc(Cl)cc1 [Example 487, 2-(5-(4-chlorophenyl)-1-(2,4-dichlorophenyl)-4-methyl-1H-pyrazol-3-yl)-5-(1-phenylcyclopropyl)-1,3,4-thiadiazole]",8.02,–
"CCC1(c2nnc(-c3nn(-c4ccc(Cl)cc4Cl)c(-c4ccc(Cl)cc4)c3C)s2)CC1 [Example 488, 2-(5-(4-chlorophenyl)-1-(2,4-dichlorophenyl)-4-methyl-1H-pyrazol-3-yl)-5-(1-ethylcyclopropyl)-1,3,4-thiadiazole]",6.97,–
"CCc1c(-c2nnc(C3(CC)CC3)s2)nn(-c2ccc(Cl)cc2Cl)c1-c1ccc(Cl)cc1 [Example 489, 2-(5-(4-chlorophenyl)-1-(2,4-dichlorophenyl)-4-ethyl-1H-pyrazol-3-yl)-5-(1-ethylcyclopropyl)-1,3,4-thiadiazole]",7.70,–
"CCc1c(-c2nnc(C3(CC)CC3)s2)nn(-c2ccc(Cl)cc2Cl)c1-c1ccc(Br)cc1 [Example 490, 2-(5-(4-bromophenyl)-1-(2,4-dichlorophenyl)-4-ethyl-1H-pyrazol-3-yl)-5-(1-ethylcyclopropyl)-1,3,4-thiadiazole]",7.70,–
"CCc1c(-c2nnc(C3(C#N)CC3)s2)nn(-c2ccc(Cl)cc2Cl)c1-c1ccc(Cl)cc1 [Example 491, 1-(5-(5-(4-chlorophenyl)-1-(2,4-dichlorophenyl)-4-ethyl-1H-pyrazol-3-yl)-1,3,4-thiadiazol-2-yl)cyclopropanecarbonitrile]",6.84,–
"Cc1c(-c2nnc(C3(c4ccc(F)cc4)CC3)s2)nn(-c2ccc(Cl)cc2Cl)c1-c1ccc(Cl)cc1 [Example 496, 2-(5-(4-chlorophenyl)-1-(2,4-dichlorophenyl)-4-methyl-1H-pyrazol-3-yl)-5-(1-(4-fluorophenyl)cyclopropyl)-1,3,4-thiadiazole]",7.31,–
"CC(C)c1c(-c2nnc(C3(C(F)(F)F)CC3)s2)nn(-c2ccc(Cl)cc2Cl)c1-c1ccc(Cl)cc1 [Example 498, 2-(5-(4-chlorophenyl)-1-(2,4-dichlorophenyl)-4-isopropyl-1H-pyrazol-3-yl)-5-(1-(trifluoromethyl)cyclopropyl)-1,3,4-thiadiazole]",7.94,–
"CCCc1c(-c2nnc(C3(C(F)(F)F)CC3)s2)nn(-c2ccc(Cl)cc2Cl)c1-c1ccc(Cl)cc1 [Example 499, 2-(5-(4-chlorophenyl)-1-(2,4-dichlorophenyl)-4-propyl-1H-pyrazol-3-yl)-5-(1-(trifluoromethyl)cyclopropyl)-1,3,4-thiadiazole]",7.68,–
"CCc1c(-c2nnc(C3(C(F)(F)F)CC3)s2)nn(-c2ccc(Cl)cc2Cl)c1-c1ccc(Cl)cc1 [Example 500, 2-(5-(4-chlorophenyl)-1-(2,4-dichlorophenyl)-4-ethyl-1H-pyrazol-3-yl)-5-(1-(trifluoromethyl)cyclopropyl)-1,3,4-thiadiazole]",7.63,–

# Continued by rising pIC50, values first:
pIC50,SMILES,IC50 (IC50(nM))
8.06,"CCc1c(-c2nnc(C3(c4ccccc4)CC3)s2)nn(-c2ccc(Cl)cc2Cl)c1-c1ccc(Br)cc1 [Example 475, 2-(5-(4-bromophenyl)-1-(2,4-dichlorophenyl)-4-ethyl-1H-pyrazol-3-yl)-5-(1-phenylcyclopropyl)-1,3,4-thiadiazole]",–
8.12,"CCc1c(-c2nnc(C3(c4ccc(OC)cc4)CC3)s2)nn(-c2ccc(Cl)cc2Cl)c1-c1ccc(Cl)cc1 [Example 481, 2-(5-(4-chlorophenyl)-1-(2,4-dichlorophenyl)-4-ethyl-1H-pyrazol-3-yl)-5-(1-(4-methoxyphenyl)cyclopropyl)-1,3,4-thiadiazole]",–
8.17,"CCc1c(-c2nnc(C3(c4ccccc4F)CC3)s2)nn(-c2ccc(Cl)cc2Cl)c1-c1ccc(Cl)cc1 [Example 501, 2-(5-(4-chlorophenyl)-1-(2,4-dichlorophenyl)-4-ethyl-1H-pyrazol-3-yl)-5-(1-(2-fluorophenyl)cyclopropyl)-1,3,4-thiadiazole]",–
8.18,"CCc1c(-c2nnc(C3(Cc4ccc(Cl)cc4)CC3)s2)nn(-c2ccc(Cl)cc2Cl)c1-c1ccc(Br)cc1 [Example 472, 2-(1-(4-chlorobenzyl)cyclopropyl)-5-(5-(4-bromophenyl)-1-(2,4-dichlorophenyl)-4-ethyl-1H-pyrazol-3-yl)-1,3,4-thiadiazole]",–
8.18,"CCc1c(-c2nnc(C3(c4ccccc4)CC3)s2)nn(-c2ccc(Cl)cc2Cl)c1-c1ccc(Cl)cc1 [Example 479, 2-(5-(4-chlorophenyl)-1-(2,4-dichlorophenyl)-4-ethyl-1H-pyrazol-3-yl)-5-(1-phenylcyclopropyl)-1,3,4-thiadiazole]",–
8.19,"CCc1c(-c2nnc(C3(c4ccc(Cl)cc4Cl)CC3)s2)nn(-c2ccc(Cl)cc2Cl)c1-c1ccc(Br)cc1 [Example 478, 2-(5-(4-bromophenyl)-1-(2,4-dichlorophenyl)-4-ethyl-1H-pyrazol-3-yl)-5-(1-(2,4-dichlorophenyl)cyclopropyl)-1,3,4-thiadiazole]",–
8.19,"CCc1c(-c2nnc(C3(c4cccc(Cl)c4)CC3)s2)nn(-c2ccc(Cl)cc2Cl)c1-c1ccc(Cl)cc1 [Example 494, 2-(5-(4-chlorophenyl)-1-(2,4-dichlorophenyl)-4-ethyl-1H-pyrazol-3-yl)-5-(1-(3-chlorophenyl)cyclopropyl)-1,3,4-thiadiazole]",–
8.21,"CCc1c(-c2nnc(C3(c4cccc(Cl)c4)CC3)s2)nn(-c2ccc(Cl)cc2Cl)c1-c1ccc(Br)cc1 [Example 495, 2-(5-(4-bromophenyl)-1-(2,4-dichlorophenyl)-4-ethyl-1H-pyrazol-3-yl)-5-(1-(3-chlorophenyl)cyclopropyl)-1,3,4-thiadiazole]",–
8.23,"CCc1c(-c2nnc(C3(Cc4ccccc4)CC3)s2)nn(-c2ccc(Cl)cc2Cl)c1-c1ccc(Br)cc1 [Example 468, 2-(1-benzylcyclopropyl)-5-(5-(4-bromorophenyl)-1-(2,4-dichlorophenyl)-4-ethyl-1H-pyrazol-3-yl)-1,3,4-thiadiazole]",–
8.29,"CCc1c(-c2nnc(C3(c4ccc(C)cc4)CC3)s2)nn(-c2ccc(Cl)cc2Cl)c1-c1ccc(Cl)cc1 [Example 480, 2-(5-(4-chlorophenyl)-1-(2,4-dichlorophenyl)-4-ethyl-1H-pyrazol-3-yl)-5-(1-p-tolylcyclopropyl)-1,3,4-thiadiazole]",–
8.34,"CCc1c(-c2nnc(C3(c4ccc(OC)cc4)CC3)s2)nn(-c2ccc(Cl)cc2Cl)c1-c1ccc(Br)cc1 [Example 473, 2-(5-(4-bromophenyl)-1-(2,4-dichlorophenyl)-4-ethyl-1H-pyrazol-3-yl)-5-(1-(4-methoxyphenyl)cyclopropyl)-1,3,4-thiadiazole]",–
8.39,"CCc1c(-c2nnc(C3(c4ccc(Cl)cc4)CC3)s2)nn(-c2ccc(Cl)cc2Cl)c1-c1ccc(Br)cc1 [Example 477, 2-(5-(4-bromophenyl)-1-(2,4-dichlorophenyl)-4-ethyl-1H-pyrazol-3-yl)-5-(1-(4-chlorophenyl)cyclopropyl)-1,3,4-thiadiazole]",–
8.40,"CCc1c(-c2nnc(C3(c4ccc(Cl)cc4Cl)CC3)s2)nn(-c2ccc(Cl)cc2Cl)c1-c1ccc(Cl)cc1 [Example 482, 2-(5-(4-chlorophenyl)-1-(2,4-dichlorophenyl)-4-ethyl-1H-pyrazol-3-yl)-5-(1-(2,4-dichlorophenyl)cyclopropyl)-1,3,4-thiadiazole]",–
8.65,"CCc1c(-c2nnc(C3(c4ccc(F)cc4)CC3)s2)nn(-c2ccc(Cl)cc2Cl)c1-c1ccc(Br)cc1 [Example 492, 2-(5-(4-bromophenyl)-1-(2,4-dichlorophenyl)-4-ethyl-1H-pyrazol-3-yl)-5-(1-(4-fluorophenyl)cyclopropyl)-1,3,4-thiadiazole]",–

# From patent US7875647B2, “Heteroaryl-pyrazole derivatives as cannabinoid CB1 receptor antagonists” (Green Cross Corporation, priority 2006, dated 2011)
